In ChEMBL document CHEMBL1137319, “Thyroid receptor ligands. 6. A high affinity "direct antagonist" selective for the thyroid hormone receptor” (J Med Chem, 2006) one finds IC50 and Activity data, which are given here for two compounds.

Test [1] addresses T1, Thyroid hormone receptor alpha (Homo sapiens, UniProt P10827).
T1 sequence (P10827 whole entry): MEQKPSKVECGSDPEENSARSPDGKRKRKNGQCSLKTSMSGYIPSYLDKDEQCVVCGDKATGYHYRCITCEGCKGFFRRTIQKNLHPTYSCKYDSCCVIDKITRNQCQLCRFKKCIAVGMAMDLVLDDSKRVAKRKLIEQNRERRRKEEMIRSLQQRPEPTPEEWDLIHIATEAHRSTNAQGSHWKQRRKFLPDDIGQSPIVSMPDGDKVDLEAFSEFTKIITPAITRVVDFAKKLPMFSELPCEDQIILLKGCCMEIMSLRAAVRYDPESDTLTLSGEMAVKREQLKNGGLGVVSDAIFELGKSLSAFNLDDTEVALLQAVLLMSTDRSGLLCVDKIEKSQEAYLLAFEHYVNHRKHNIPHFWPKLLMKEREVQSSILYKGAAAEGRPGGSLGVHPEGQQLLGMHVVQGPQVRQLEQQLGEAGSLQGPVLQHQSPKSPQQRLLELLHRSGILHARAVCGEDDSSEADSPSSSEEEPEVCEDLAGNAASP
The test can be described thus: Binding affinity to human TRalpha1.

For test [2], the target named is T2, Thyroid hormone receptor beta (Homo sapiens, UniProt P10828).
T2 sequence (P10828 whole entry): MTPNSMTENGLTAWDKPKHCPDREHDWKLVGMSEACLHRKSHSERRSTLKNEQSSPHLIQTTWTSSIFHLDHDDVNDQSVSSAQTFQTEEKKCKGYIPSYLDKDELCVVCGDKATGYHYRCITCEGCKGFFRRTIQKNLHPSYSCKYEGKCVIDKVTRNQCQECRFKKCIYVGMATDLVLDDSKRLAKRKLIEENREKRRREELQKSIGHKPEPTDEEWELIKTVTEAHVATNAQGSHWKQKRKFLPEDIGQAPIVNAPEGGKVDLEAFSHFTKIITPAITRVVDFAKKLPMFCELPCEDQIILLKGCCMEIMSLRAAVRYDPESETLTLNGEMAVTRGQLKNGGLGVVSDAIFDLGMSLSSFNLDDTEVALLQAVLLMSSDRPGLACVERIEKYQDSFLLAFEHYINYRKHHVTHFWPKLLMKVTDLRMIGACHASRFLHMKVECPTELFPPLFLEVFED
Kind of test: Binding affinity to human TRbeta1.

In test [3] the target is T1, Thyroid hormone receptor alpha. Kind of test: Activity at human TR-alpha-1 transfected in CHO K1 cells by alkaline phosphatase reporter gene assay. A general note: A reporter such as luciferase makes a cellular process visible.
The target in test [4] is T2, Thyroid hormone receptor beta. Kind of test: Activity at human TR-beta-1 transfected in CHO K1 cells by alkaline phosphatase reporter gene assay.
The test system of test [5] is Rattus norvegicus. Kind of test: Increase in LDL cholesterol level in orally dosed cholesterol-fed Sprague-Dawley rat relative to control. Format: functional.
The test system of test [6] is Rattus norvegicus. Kind of test: Decrease in heart rate in orally dosed cholesterol-fed Sprague-Dawley rat relative to control. The format is functional. The arrangement: scale not given: the % may be the effect or the level left.

SMILES strings stand for the structures.

For orientation: IC50 means the concentration at which inhibition is half-maximal. Consider `CC(C)c1cc(Oc2c(Br)cc(CCC(=O)O)cc2Br)cc(/C=C/c2ccncc2)c1O`, for which the IC50 in test [1] is 36 nM; in test [2], 22 nM; in test [3], 32 nM; in test [4] it was 32 nM. Besides, the Activity in test [5] is reported as 13%; in test [6], -10%.
As to `O=C(O)CCc1ccccc1OCC1C(Br)CCCC1Br` (stereo not drawn), the IC50 in test [1] turned out to be 460 nM; in test [2], 190 nM.
